Assay results published in patent US20240158446A1, “CYCLIC COMPOUND HAVING SELECTIVE INHIBITORY ACTION ON KRAS OVER HRAS AND NRAS” (CHUGAI SEIYAKU KABUSHIKI KAISHA, priority 2021, published 2024).

Columns and labels:
[1] = target: GDP-bound NRAS wild-type protein (Homo sapiens, UniProt P01111); assay: Binding to NRAS by surface plasmon resonance (SPR), Single Cycle Kinetics; conditions: SPR, GDP-bound NRAS wild-type protein vs GDP-bound KRAS wild-type protein
[2] = target: GDP-bound HRAS wild-type protein (Homo sapiens, UniProt P01112); assay: Binding to HRAS by surface plasmon resonance (SPR), Single Cycle Kinetics; conditions: SPR, GDP-bound HRAS wild-type protein vs GDP-bound KRAS wild-type protein
Sequence of GDP-bound HRAS wild-type protein (P01112 whole entry): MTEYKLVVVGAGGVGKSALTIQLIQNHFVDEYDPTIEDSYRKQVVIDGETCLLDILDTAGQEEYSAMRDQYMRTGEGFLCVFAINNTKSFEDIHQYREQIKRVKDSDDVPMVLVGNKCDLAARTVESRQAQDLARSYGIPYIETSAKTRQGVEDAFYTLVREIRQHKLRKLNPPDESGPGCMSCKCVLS

[3] = target: GDP-bound KRAS wild-type protein (Homo sapiens, UniProt P01116); assay: Binding to KRAS by surface plasmon resonance (SPR), Single Cycle Kinetics; conditions: SPR Single Cycle Kinetics, GDP-bound KRAS wild-type protein, 1:1 binding model; read-out: KRAS KD
Sequence of GDP-bound KRAS wild-type protein (P01116 whole entry): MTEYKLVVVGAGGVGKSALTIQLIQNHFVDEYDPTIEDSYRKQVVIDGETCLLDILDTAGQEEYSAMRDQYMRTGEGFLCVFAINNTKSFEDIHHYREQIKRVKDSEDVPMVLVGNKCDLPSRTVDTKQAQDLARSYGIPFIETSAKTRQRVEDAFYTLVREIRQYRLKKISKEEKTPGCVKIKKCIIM

Sequence of GDP-bound NRAS wild-type protein (P01111 whole entry): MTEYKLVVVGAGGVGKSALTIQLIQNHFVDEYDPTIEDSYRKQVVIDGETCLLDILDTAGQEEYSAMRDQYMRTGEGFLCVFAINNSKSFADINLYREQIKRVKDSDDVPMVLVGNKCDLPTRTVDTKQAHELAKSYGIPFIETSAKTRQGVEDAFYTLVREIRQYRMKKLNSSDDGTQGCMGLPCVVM

Structure (SMILES) | NRAS/KRAS (ratio of KD value with respect to NRAS to KD value with respect to KRAS) [1] | HRAS/KRAS (ratio of KD value with respect to HRAS to KD value with respect to KRAS) [2] | Kd [3]
CC[C@H](C)[C@@H]1NC(=O)[C@H](CC(C)C)N(C)C(=O)C[C@@H](C(=O)N2CCOCC2)N(C)C(=O)[C@H](C2CCCC2)N(C)C(=O)C2(CCCC2)NC(=O)[C@@H]2CCCN2C(=O)[C@H](CCc2ccc(C(F)(F)F)c(Cl)c2)NC(=O)CN(C)C(=O)[C@H](Cc2ccc(Cl)cc2)N2C/C=C\CC[C@@H](C2=O)N(C)C(=O)CN(C)C1=O [PP0608] | C (A compound having a KD ratio of 0.1 or more and less than 3 is denoted as C) | B (a compound having 3 or more and less than 10 is denoted as B) | 1.7 nM
CC[C@H](C)[C@@H]1NC(=O)[C@H](CC(C)C)N(C)C(=O)C[C@@H](C(=O)N2CCOCC2)N(C)C(=O)[C@H](C2CCCC2)N(C)C(=O)C2(CCCC2)NC(=O)[C@@H]2CCCN2C(=O)[C@H](CCc2ccc(C(F)(F)F)c(Cl)c2)NC(=O)CN(C)C(=O)[C@H](Cc2ccc(OC(F)(F)F)cc2)N2C/C=C\CC[C@@H](C2=O)N(C)C(=O)CN(C)C1=O [PP0610] | B (a compound having 3 or more and less than 10 is denoted as B) | B (a compound having 3 or more and less than 10 is denoted as B) | 49 nM
CC[C@H](C)[C@@H]1NC(=O)[C@H](CC(C)C)N(C)C(=O)C[C@@H](C(=O)N2CCOCC2)N(C)C(=O)[C@H](C2CCCC2)N(C)C(=O)C2(CCCC2)NC(=O)[C@@H]2CCCN2C(=O)[C@H](CCc2ccc(C(F)(F)F)c(Cl)c2)NC(=O)CN(C)C(=O)[C@H](Cc2ccc(F)cc2)N2CCCCC[C@@H](C2=O)N(C)C(=O)CN(C)C1=O [PP0612] | B (a compound having 3 or more and less than 10 is denoted as B) | B (a compound having 3 or more and less than 10 is denoted as B) | 0.39 nM
CC[C@H](C)[C@@H]1NC(=O)[C@H](CC(C)C)N(C)C(=O)C[C@@H](C(=O)N2CCOCC2)N(C)C(=O)[C@H](C2CCCC2)N(C)C(=O)C2(CCCC2)NC(=O)[C@@H]2CCCN2C(=O)[C@H](CCc2ccc(C(F)(F)F)c(Cl)c2)NC(=O)CN(C)C(=O)[C@H](Cc2ccc(Cl)cc2)N2CCCCC[C@@H](C2=O)N(C)C(=O)CN(C)C1=O [PP0613] | B (a compound having 3 or more and less than 10 is denoted as B) | B (a compound having 3 or more and less than 10 is denoted as B) | 0.6 nM
CC[C@H](C)[C@@H]1NC(=O)[C@H](CC(C)C)N(C)C(=O)C[C@@H](C(=O)N2CCOCC2)N(C)C(=O)[C@H](C2CCCC2)N(C)C(=O)C2(CCCC2)NC(=O)[C@@H]2CCCN2C(=O)[C@H](CCc2ccc(C(F)(F)F)c(Cl)c2)NC(=O)CN(C)C(=O)[C@H](Cc2ccc(OC)cc2)N2CCCCC[C@@H](C2=O)N(C)C(=O)CN(C)C1=O [PP0614] | B (a compound having 3 or more and less than 10 is denoted as B) | B (a compound having 3 or more and less than 10 is denoted as B) | 1.1 nM
CC[C@H](C)[C@@H]1NC(=O)[C@H](CC(C)C)N(C)C(=O)C[C@@H](C(=O)N2CCOCC2)N(C)C(=O)[C@H](C2CCCC2)N(C)C(=O)C2(CCCC2)NC(=O)[C@@H]2CCCN2C(=O)[C@H](CCc2ccc(C(F)(F)F)c(Cl)c2)NC(=O)CN(C)C(=O)[C@H](Cc2ccc(OC(F)(F)F)cc2)N2CCCCC[C@@H](C2=O)N(C)C(=O)CN(C)C1=O [PP0615] | B (a compound having 3 or more and less than 10 is denoted as B) | B (a compound having 3 or more and less than 10 is denoted as B) | 6.2 nM
CC[C@H](C)[C@@H]1NC(=O)[C@@H](CC(C)C)N(C)C(=O)C[C@@H](C(=O)N(C)C)N(C)C(=O)[C@@H](C2CCCC2)N(C)C(=O)C2(CCCC2)NC(=O)[C@@H]2CCCN2C(=O)[C@H](CCc2ccc(C(F)(F)F)c(Cl)c2)NC(=O)CN(C)C(=O)[C@@H](Cc2ccc(C)cc2)N2CC/C=C\CCN(CC2=O)C(=O)CN(C)C1=O [PP0618] | C (A compound having a KD ratio of 0.1 or more and less than 3 is denoted as C) | C (A compound having a KD ratio of 0.1 or more and less than 3 is denoted as C) | 6.2 nM
CC[C@H](C)[C@@H]1NC(=O)[C@H](CC(C)C)N(C)C(=O)C[C@@H](C(=O)N(C)C)N(C)C(=O)[C@H](C2CCCC2)N(C)C(=O)C2(CCCC2)NC(=O)[C@@H]2CCCN2C(=O)[C@H](CCc2ccc(C(F)(F)F)c(Cl)c2)NC(=O)CN(C)C(=O)[C@H](Cc2ccc(C(F)(F)F)cc2)N2CC/C=C\COC[C@@H](C2=O)N(C)C(=O)CN(C)C1=O [PP0622] | B (a compound having 3 or more and less than 10 is denoted as B) | B (a compound having 3 or more and less than 10 is denoted as B) | 11 nM
CCO[C@@H]1C[C@H]2C(=O)NC3(CCC3)C(=O)N(C)[C@@H](C3CCCC3)C(=O)N(CC)[C@H](C(=O)N(C)C)CC(=O)N(C)[C@@H](CC)C(=O)N[C@@H]([C@@H](C)CC)C(=O)N(C)CC(=O)N(C)[C@H]3CCCCCN(C3=O)[C@@H](Cc3ccc(C(F)(F)F)cc3)C(=O)N(C)CC(=O)N[C@@H](CCc3cc(F)c(C(F)(F)F)c(F)c3)C(=O)N2C1 [PP0633] | B (a compound having 3 or more and less than 10 is denoted as B) | B (a compound having 3 or more and less than 10 is denoted as B) | 2.3 nM
CCO[C@@H]1C[C@H]2C(=O)NC3(CCC3)C(=O)N(C)[C@@H](C3CCCC3)C(=O)N(CCC3CCC3)[C@H](C(=O)N(C)C)CC(=O)N(C)[C@@H](CC)C(=O)N[C@@H]([C@@H](C)CC)C(=O)N(C)CC(=O)N(C)[C@H]3CCCCCN(C3=O)[C@@H](Cc3ccc(C(F)(F)F)cc3)C(=O)N(C)CC(=O)N[C@@H](CCc3cc(F)c(C(F)(F)F)c(F)c3)C(=O)N2C1 [PP0635] | B (a compound having 3 or more and less than 10 is denoted as B) | B (a compound having 3 or more and less than 10 is denoted as B) | 2.7 nM
CCO[C@@H]1C[C@H]2C(=O)NC3(CCC3)C(=O)N(C)[C@@H](C3CCCC3)C(=O)N(CCC3CCCC3)[C@H](C(=O)N(C)C)CC(=O)N(C)[C@@H](CC)C(=O)N[C@@H]([C@@H](C)CC)C(=O)N(C)CC(=O)N(C)[C@H]3CCCCCN(C3=O)[C@@H](Cc3ccc(C(F)(F)F)cc3)C(=O)N(C)CC(=O)N[C@@H](CCc3cc(F)c(C(F)(F)F)c(F)c3)C(=O)N2C1 [PP0636] | A (a compound having 10 or more and less than 20 is denoted as A) | A (a compound having 10 or more and less than 20 is denoted as A) | 8.6 nM
CCO[C@@H]1C[C@H]2C(=O)NC3(CCC3)C(=O)N(C)[C@@H](C3CCCC3)C(=O)N(CCc3ccccc3)[C@H](C(=O)N(C)C)CC(=O)N(C)[C@@H](CC)C(=O)N[C@@H]([C@@H](C)CC)C(=O)N(C)CC(=O)N(C)[C@H]3CCCCCN(C3=O)[C@@H](Cc3ccc(C(F)(F)F)cc3)C(=O)N(C)CC(=O)N[C@@H](CCc3cc(F)c(C(F)(F)F)c(F)c3)C(=O)N2C1 [PP0637] | B (a compound having 3 or more and less than 10 is denoted as B) | B (a compound having 3 or more and less than 10 is denoted as B) | 23 nM
CCCN1C(=O)[C@H](C2CCCC2)N(C)C(=O)C2(CCC2)NC(=O)[C@@H]2C[C@@H](OCC)CN2C(=O)[C@H](CCc2cc(F)c(C(F)(F)F)c(F)c2)NC(=O)CN(C)C(=O)[C@H](Cc2ccc(C(F)(F)F)cc2)N2CCCCC[C@@H](C2=O)N(C)C(=O)CN(C)C(=O)[C@H]([C@@H](C)CC)NC(=O)[C@H](CC(C)C)N(C)C(=O)C[C@H]1C(=O)N1CCOCC1 [PP0639] | B (a compound having 3 or more and less than 10 is denoted as B) | B (a compound having 3 or more and less than 10 is denoted as B) | 8.5 nM
CCO[C@@H]1C[C@H]2C(=O)NC3(CCC3)C(=O)N(C)[C@@H](C3CCCC3)C(=O)N(CC)[C@H](C(=O)N(C)C)CC(=O)N(C)[C@@H](CC)C(=O)N[C@@H]([C@@H](C)CC)C(=O)N(C)CC(=O)N(C)[C@H]3CCCCN(C3=O)[C@@H](Cc3ccc(C(F)(F)F)cc3)C(=O)N(C)CC(=O)N[C@@H](CCc3cc(F)c(C(F)(F)F)c(F)c3)C(=O)N2C1 [PP0643] | C (A compound having a KD ratio of 0.1 or more and less than 3 is denoted as C) | B (a compound having 3 or more and less than 10 is denoted as B) | 0.074 nM
CCO[C@@H]1C[C@H]2C(=O)NC3(CCC3)C(=O)N(C)[C@@H](C3CCCC3)C(=O)N(CCC3CCC3)[C@H](C(=O)N(C)C)CC(=O)N(C)[C@@H](CC)C(=O)N[C@@H]([C@@H](C)CC)C(=O)N(C)CC(=O)N(C)[C@H]3CCCCN(C3=O)[C@@H](Cc3ccc(C(F)(F)F)cc3)C(=O)N(C)CC(=O)N[C@@H](CCc3cc(F)c(C(F)(F)F)c(F)c3)C(=O)N2C1 [PP0645] | B (a compound having 3 or more and less than 10 is denoted as B) | B (a compound having 3 or more and less than 10 is denoted as B) | 0.028 nM
